# Reference: patent publication EP0963755A2, “Use of benzopyranes for preventing allograft rejection” (Pfizer Products Inc., priority 1998, dated 1999)
# System: acute allograft rejection
# Assay: murine cardiac ear pinna model of acute allograft rejection (non-vascularized cardiac tissue transplantation)
# Assay type: in vivo
# Conditions: monotherapy; for Graft Survival, Mean ± Std Dev (mean survival days): day 0 to 17, BALB/C neonatal hearts into C3H/HeN ear pinna, assessed day 6 to 18
# Excerpt: Methods: A rapid, facile 2-week murine bioassay of non-vascularized cardiac tissue transplantation,t he murine cardiac ear pinna model of acute allograft rejection, was used to evaluate the dose-response relationship of immunosuppressive drugs on allograft rejection. In this model, donor BALB/C (H2^d) neonatal hearts are transplanted into recipient C3H/HeN (H2^k) ear pinna pouches without vacular anastomoses. Survivinghearts are revascularized and usually resume beating on day 3 to 6. Untreated allografts failed prior to day 12 (MST = 10.5 + 0.9d, n=13). Isografts survived indefinitely. All compounds are given on day 0 to 17 COMPOUND P [(+)-2-[3,4-dihydro(3S,4R)-4-hydroxy-3-(4-phenyl-phenylmethyl)-7-(2H,1-benzopyran)]cyclopentane carboxylic acid] was given orally in 0.5% Methylcellulose. Grafts were assessed by visual examination for contraction on alternate days (from 6 to 18) and graft survival was defined as the post-transplant day on which contractions cease. Efficacy data from day 6 to 18 is presented as mean survival days (+SD) and was analyzed by Log Rank Analysis. Graft survival values were determined at day 18. Any graft surviving at day 18 was censored for statistical purposes.
structure (smiles),measurement,setting,value
"O=C(O)C1CCCC1c1ccc2c(c1)OC[C@H](Cc1ccc(-c3ccccc3)cc1)[C@H]2O (single isomer, unassigned; (+)) [COMPOUND P]",efficacy as a single agent in acute rejection (graft survival on day 18),"highest dose, 300 mg/kg d",significant (p<0.01)
same,efficacy as a single agent in acute rejection (graft survival on day 18),"lower doses tested (200, 100, and 30 mg/kg)",not at the lower doses tested
same,"Graft Survival, Mean ± Std Dev (mean survival days)",30 mg/kg/d orally in 0.5% Methylcellulose,11.0 ± 1.1 days
same,"Graft Survival, Mean ± Std Dev (mean survival days)",100 mg/kg/d orally in 0.5% Methylcellulose,10.3 ± 0.7 days
same,"Graft Survival, Mean ± Std Dev (mean survival days)",200 mg/kg/d orally in 0.5% Methylcellulose,10.3 ± 0.7 days
same,"Graft Survival, Mean ± Std Dev (mean survival days)",300 mg/kg/d orally in 0.5% Methylcellulose,11.8 ± 1.1 days
